Where “and” joins values, the source holds several entries; their conditions need not be identical. Equal values may be shown once. Read-outs that look alike come from different tables or passages of the source.
Columns and labels:
[1] = system: HDF, MeWo and A375 cell lines; assay: (Photo)cytotoxicity MTT assay, statements made for all cell lines; assay type: cell-based, human; details: Homo sapiens, light or radiation study; irradiation 643 nm, with or without CoCl2; read-out: IC50 in all the tested cells
Experimental: (§1) For (photo)cytotoxicity assays, stock solutions of porphyrins were prepared in DMSO and dissolved in DMEM to the final concentrations. The porphyrin incubation time was 6h. Irradiation of the cells was with red light (λ = 643 nm) for 30 min (light dose, 3.6 J/cm^2). Nonirradiated cells were used to test the dark toxicity. All measurements were performed in three individual experiments, and the results are shown as the proliferation (%) of the cells and were calculated as IC50 values.
(§2) The cytotoxicity of (oxidopyridyl)porphyrins was assessed by an MTT assay on the HDF, MeWo and A375 cell lines after 6 h of incubation with porphyrins, without irradiation, or after 30 min of irradiation with red light (λ = 643 nm), and under conditions of normoxia or hypoxia. To induce hypoxia, 100 µM of CoCl2 was added at least two hours before the porphyrins. […] Oxygen is also one of the substrates for the activity of prolyl hydroxylases; therefore, in both cases, the result is the blockage of hydroxylation of HIF-1α and, consequently, its increase and stabilisation, which, in the case of CoCl2-induced hypoxia, can be maintained for several hours.

HDF = assay: Photocytotoxicity, MTT assay; assay type: cell-based, human; details: for IC50: Homo sapiens, HDF, light or radiation study, 6 h incubation, red light 643 nm 30 min
Experimental: as §1, §2

MeWo = assay: Photocytotoxicity, MTT assay; assay type: cell-based, human; details: red light 643 nm 30 min; for IC50: Homo sapiens, MeWo, light or radiation study, 6 h incubation
Experimental: as §1, §2

A375 = assay: Photocytotoxicity, MTT assay; assay type: cell-based, human; details: red light 643 nm 30 min; for IC50: Homo sapiens, A-375, light or radiation study, 6 h incubation
Experimental: as §1, §2

MeWo cells = assay: Intracellular localisation by fluorescence microscopy with DIOC6(3); assay type: cell-based, human; details: 5 µM in medium, 6 h
Experimental: In the localisation tests, the cells were incubated with porphyrins and DIO6(3), a marker for mitochondria and endoplasmic reticulum (ER), which was used to investigate the colocalisation of porphyrins with the mentioned organelles. All images were analysed using the ImageJ program, while Pearson’s correlation coefficient was calculated using the CellSense program, fluorescence microscope software produced by Olympus.
To determine any potential preference for the ER and mitochondria, the localisation of (oxidopyridyl)porphyrins substituted with an alkyl chain of 9, 13 and 17 C atoms was observed by fluorescence microscopy incubation with 3,3′-dihexyloxacarbocyanine iodide (DIOC6(3)), a marker that is commonly used to target vesicle membranes, mitochondria and ER [39].

[2] = Fluorescence decay by time-correlated single-photon counting (TC-SPC); assay type: physicochemical; details: MeOH, N2, λex 405 nm
Experimental: Time-correlated single-photon counting (TC-SPC) was used to obtain information about fluorescence decays. All measurements were performed on an FS5 Edinburgh Instruments device with a pulsed laser at 405 nm wavelength, which was used for the excitation process (pulse duration 60 ps). Fluorescence signals were monitored at 660 nm over 1023 channels, with a time increment of ≈49 ps/channel. Porphyrins were dissolved in MeOH (HPLC grade), with the absorbance adjusted to 0.1 a.u. at the excitation wavelength, and the solution was degassed with N2 for 15 min before the measurements were taken. All the decays were collected until they reached 3000 counts in the peak channel. A scattering solution, a silica gel suspension in H2O, was used to obtain the instrument response function (IRF). The histograms were analysed using a nonlinear least-squares deconvolution method via the software implemented with the instrument.

[3] = UV-Vis absorption spectra in MeOH; assay type: physicochemical
Experimental: The absorption spectra of (oxidopyridyl)porphyrins were recorded in HPLC grade MeOH on a Cary UV 60 (Agilent Technologies, Santa Clara, CA, USA), in a wavelength range of 300–700 nm. The fluorescence spectra in HPLC grade MeOH were recorded on a Cary Eclipse (Agilent Technologies) in a wavelength range of 500–800 nm after excitation at the Soret band wavelength (λ ~ 420 nm). The slits of the spectrometer were set to a bandpass of 5 nm for the excitation and 5 nm for the emission. To calculate the fluorescence quantum yields, the measurements were conducted on an FS5 Edinburgh Instruments spectrometer. Prior to taking the measurements, the solutions were purged with high-purity N2 for at least 15 min. The absorbance of the solutions was set to A < 0.1 at 405 nm and 550 nm, which settings were used for the excitation process. Emission was recorded from 550 to 800 nm, with slits set to the bandpass corresponding to 2 nm for the excitation, and 3 nm for the emission. Fluorescence quantum yield (ΦFL) was calculated in comparison to the tetraphenylporphyrin (TPP; ΦFL = 0.11 [23]) as a standard, according to Equation (S1) and following an equation previously described elsewhere.

solubility (porphyrin not internalised, aggregates outside the cells) (MeWo cells): low solubility
contribution of τ1 (% of the decay) [2]: 1%
contribution of τ2 (% of the decay) [2]: 99%
τFL, longer decay time τ2 [2]: 7.82 ± 0.02 ns and 7.82 ns
τFL, short decay time τ1 [2]: 0.57 ± 0.08 ns and 0.57 ns
ε Qx (0-0) [3]: 1600 M⁻¹ cm⁻¹
ε Qx (1-0) [3]: 4500 M⁻¹ cm⁻¹
ε Qy (0-0) [3]: 4300 M⁻¹ cm⁻¹
ε Qy (1-0) [3]: 15000 M⁻¹ cm⁻¹
ε Soret (B) [3]: 275400 M⁻¹ cm⁻¹
λabs Qx (0-0) [3]: 646 nm
λabs Qx (1-0) [3]: 587 nm
λabs Qy (0-0) [3]: 547 nm
λabs Qy (1-0) [3]: 512 nm
λabs Soret (B) [3]: 417 nm
SMILES: CCCCCCCCCCCCCCCCCC(=O)Nc1ccc(-c2c3nc(c(-c4ccc[n+]([O-])c4)c4ccc([nH]4)c(-c4ccc[n+]([O-])c4)c4nc(c(-c5ccc[n+]([O-])c5)c5ccc2[nH]5)C=C4)C=C3)cc1 [TOPyP3-C17H35, 5-(4-Octadecanamidophenyl)-10,15,20-tris(1-oxido-3-pyridyl)porphyrin]
IC50 [1]: ≤ 1000 nM
reduction in the proliferation of cells (HDF; 1 µM, irradiation 643 nm, normoxia): ~ 40%
IC50 (HDF; 3.6 J/cm^2, 100 μM CoCl2 at least 2 h before porphyrin, read-out: IC50 HDF CoCl2): 1090 ± 290 nM
IC50 (HDF; 3.6 J/cm^2, normoxia, read-out: IC50 HDF No CoCl2): 1310 ± 570 nM
IC50 (MeWo; 3.6 J/cm^2, 100 μM CoCl2 at least 2 h before porphyrin, read-out: IC50 MeWo CoCl2): 680 ± 190 nM
IC50 (MeWo; 3.6 J/cm^2, normoxia, read-out: IC50 MeWo No CoCl2): 660 ± 140 nM
SI (IC50 (HDF) / IC50 (melanoma cells)) MeWo 100 µM CoCl2 (MeWo; CoCl2-induced hypoxia): 1.6
SI (IC50 (HDF) / IC50 (melanoma cells)) MeWo No CoCl2 (MeWo; normoxia): 2.0
IC50 (A375; 3.6 J/cm^2, 100 μM CoCl2 at least 2 h before porphyrin, read-out: IC50 A375 CoCl2): 940 ± 150 nM
IC50 (A375; 3.6 J/cm^2, normoxia, read-out: IC50 A375 No CoCl2): 770 ± 80 nM
SI (IC50 (HDF) / IC50 (melanoma cells)) A375 100 µM CoCl2 (A375; CoCl2-induced hypoxia): 1.2
SI (IC50 (HDF) / IC50 (melanoma cells)) A375 No CoCl2 (A375; normoxia): 1.7
